Laboratory results from patent US20220168301A1, “METHODS FOR TREATING SYMPTOMATIC ORTHOSTATIC HYPOTENSION” (Cerecor Inc, priority 2019, published 2022).
Like-named read-outs stand apart in the source and are kept apart here.

Assays:
healthy subjects = experiment: 24-hour ambulatory blood pressure monitoring (ABPM), 7-day once-daily dosing study in healthy subjects; type: in vivo, human
Description: The effects of CERC-301 were assessed in a randomized, double-blind, placebo-controlled, parallel-group, three-part safety, pharmacokinetic, and pharmacodynamic study in healthy human subjects.
One of the primary objective of the study was to investigative the dose-response relationship between CERC-301 and pharmacodynamic (PD) effects on blood pressure [BP] in healthy subjects. Secondary objectives included the investigation of the safety and tolerability of CERC-301 over 7 days of once-daily administration and the investigation of a single dose and 7-day repeated dose pharmacokinetic (PK) profiles of CERC-301, and to explore sub-group (age or gender) effects on other safety parameters, such as adverse events (AEs).
The study was a randomized, double-blind, placebo-controlled parallel-group, three-part, repeated dose in-patient study investigating the safety, tolerability, PK, and PD of CERC-301 in healthy subjects.
(§1) Part 1: After the screening period, healthy, young male and female subjects were randomly assigned to dose groups as shown in Table 1. Randomized subjects participated in a time-matched baseline BP monitoring day (Day −1), once-daily dosing with study drug during which safety, PK, and PD assessments were performed on Days 1-7, discharge on Day 8, a follow-up period for PK and safety on Days 9-11, and end-of-study visit on Day 16. Each parallel dose group was balanced for gender (approximately equal number of males and females in each group).
as §1, with “2:” for “1:”, “young and intermediate age” for “young”, “2.” for “1.”
Part 3: After the screening period, healthy, young and elderly male and female subjects were randomly assigned to dose groups as shown in Table 3.
as §1, with “Randomized” for “Part 1: After the screening period, healthy, young male and female subjects were randomly assigned to dose groups as shown in Table 1. Randomized”
Subjects received 8, 12, 16 or 20 mg CERC-301 or matching placebo once-daily for 7 days.
PD endpoints included the following […]: • 24-hour Ambulatory Blood Pressure Monitoring (ABPM) • Observed values and time matched change from baseline (pre-dose) of 24-hour ABPM • Mean 24 hours, Sleep and Awake systolic and diastolic BPs. • Mean Arterial Pressure (MAP), pulse pressure, and heart rate. • Observed values and change from baseline of sub-scale scores and Total Mood Disturbance (TMD) scores from Profiles of Mood States (POMS)

[1] = Plasma pharmacokinetics of single escalating doses in patients with symptomatic nOH associated with Parkinson's disease; type: in vivo, human; conditions: for Cmax / AUC: human, plasma, oral; for AUC: 6-hour PK collection period, read-out: Area Under the Curve (AUC)
Description: Subjects were dosed on five separate occasions, approximately 7-10 days apart, with one of four single escalating doses of CERC-301 or placebo and underwent an orthostatic challenge test to assess the safety, tolerability, effect on blood pressure, and PK. Subjects also completed a symptomatic assessment following the orthostatic challenge. Subjects were enrolled and randomized based on the dosing schedule in Table 4:
Investigational product was administered as CERC-301 4 mg tablets and matching placebo. Study drug was administered orally (P.O) with water approximately 1.5 hours after the patient consumed breakfast.
PK samples were drawn pre-dose and at 0.5, 1, 2, 4 and 6 hours post-dose. All blood draws were done after blood pressure measures are taken.
Blood samples for plasma concentration analysis of CERC-301 were collected at pre-dose and 0.5, 1, 2, 4 and 6 hours post-dose at all visits.
Blood sampling, processing, storage, and shipping instructions were provided in the Laboratory Manual. The plasma samples were analyzed via liquid chromatography tandem mass spectrometry (LC-MS/MS) following a validated method.
PK parameter estimates for CERC 301 were calculated using standard non-compartmental methods of analysis.

[2] = 20 mg, 24 hours postdose, after 7 days of dosing

- Cmax dose proportionality ([1]; 8 to 20 mg single doses (FIG. 2)): generally dose proportional
- Tmax ([1]; all dosing groups (8, 12, 16, 20 mg single dose P.O.)): approximately 2 hours post dose
- Cmax ([1]; 8 mg single dose): 108 ng/mL
- AUC ([1]; 8 mg single dose): 473 ng·h/mL
- Cmax ([1]; 12 mg single dose): 161 ng/mL
- AUC ([1]; 12 mg single dose): 795 ng·h/mL
- Cmax ([1]; 16 mg single dose): 187 ng/mL
- AUC ([1]; 16 mg single dose): 954 ng·h/mL
- Cmax ([1]; 20 mg single dose): 266 ng/mL
- AUC ([1]; 20 mg single dose): 1240 ng·h/mL
SMILES: Cc1ccc(COC(=O)N2CC[C@H](CNc3ncccn3)[C@H](F)C2)cc1 [CERC-301]
- Average nighttime SBP increase (healthy subjects; 16 mg, Day 7): 2 mm Hg
- Mean hourly average DBP change from baseline (healthy subjects; [2]): approximately 10 mm Hg
- Mean hourly average SBP change from baseline (healthy subjects; [2]): approximately 14 mm Hg
- Maximum average hourly daytime ambulatory DBP (healthy subjects; 20 mg, Day 1): approximately 15 mm Hg
- Maximum average hourly daytime ambulatory SBP (healthy subjects; 20 mg, Day 1): approximately 16 mm Hg
- Maximum average hourly daytime ambulatory DBP (healthy subjects; 20 mg, Day 4): approximately 15 mm Hg
- Maximum average hourly daytime ambulatory SBP (healthy subjects; 20 mg, Day 4): ~21 mm Hg
- Maximum average hourly daytime ambulatory DBP (healthy subjects; 20 mg, Day 7): ~19 mm Hg
- Maximum average hourly daytime ambulatory SBP (healthy subjects; 20 mg, Day 7): ~24 mm Hg
